Values after ≈ are worked out from the molar mass of the structure shown. Read-outs that look alike come from different tables or passages of the source.
Legend:
Assay type in all cases: cell-based
[1] = tested on: A. nosocomialis M2; experiment: MIC by broth microdilution AST; details: for MIC: microdilution from pure culture; for MIC (S/I/R): class according to 2016 CLSI handbook
Protocol: (§1) Varied counts of bacteria were mixed with human blood and diluted 1:9 (v/v) with bacterial growth medium to desired bacterial concentrations (<10 CFU/mL final solution) and plated to independently confirm CFU/mL blood. Saponin was immediately added and the samples shaken for 15 minutes to achieve selective blood cell lysis. After hemolysis, bacteria were spun down and washed with PBS. The pellets were resuspended in bacterial growth medium and incubated at 37° C. for 2 hours, followed by another 3-hour incubation with antibiotics at various fractions of the minimum inhibition concentration (MIC, as independently determined by microdilution from the pure starting culture, Table 1) for sensitive strains or at the CLSI MIC resistant breakpoints^(12) for the highly resistant strains. Changes in scattered light signals largely resulting from bacterial growth inhibition were monitored by flow cytometry, and the difference in the 2-D scatter histograms with and without antibiotic treatment was quantified with PB-sQF statistics.^(1) Using PB-sQF, distance was calculated for each antibiotic concentration relative to its own no-antibiotic control and expressed as “fold distance” relative to the 99% confidence limit distance between the no-antibiotic control and the sensitive breakpoint. This allowed comparison of fold distances among all samples as each is individually paired to its own control, as is each replicate.
(§2) All clinical isolates (E. coli strains Mu14S and Mu890, K. pneumoniae strains Mu670 and Mu55, A. nosocomialis strains M2) were obtained from the Georgia Emerging Infection Program (GEIP). The MIC of each isolate was determined by a clinical microbiology laboratory using post blood culture automated AST and confirmed using broth microdilution in our laboratory. The MICs of each strain were measured to be as follows. For A. nosocomialis strain M2, 1 μg/mL tetracycline, 2 μg/mL gentamicin, and >1024 μg/mL ampicillin. For E. coli strain Mu890, 1 μg/mL tetracycline, 8 μg/mL gentamicin, and >1024 μg/mL ampicillin. For E. coli strain Mu14S, >64 μg/mL tetracycline, 8 μg/mL gentamicin, and >1024 μg/mL ampicillin. For K. pneumoniae strain Mu55, >64 μg/mL tetracycline, 1 μg/mL gentamicin, and >1024 μg/mL ampicillin. For K. pneumoniae strain Mu670, 2 μg/mL tetracycline, 4 μg/mL gentamicin, and >1024 μg/mL ampicillin.

[2] = tested on: E. coli Mu14S; experiment: MIC by broth microdilution AST; details: for MIC: microdilution from pure culture; for MIC (S/I/R): class according to 2016 CLSI handbook
Protocol: as §1, §2

[3] = tested on: K. pneumoniae Mu55; experiment: MIC by broth microdilution AST; details: for MIC: microdilution from pure culture; for MIC (S/I/R): class according to 2016 CLSI handbook
Protocol: as §1, §2

[4] = tested on: E. coli Mu890; experiment: MIC by broth microdilution AST; details: for MIC (S/I/R): class according to 2016 CLSI handbook; for MIC: microdilution from pure culture
Protocol: as §1, §2

[5] = tested on: K. pneumoniae Mu670; experiment: MIC by broth microdilution AST; details: for MIC: microdilution from pure culture; for MIC (S/I/R): class according to 2016 CLSI handbook
Protocol: as §1, §2

[6] = tested on: A. nosocomialis strain M2; experiment: FAST flow cytometry AST with PB-sQF, bacteria recovered from 10% human blood; details: M2 spiked in 10% human blood, assayed within 8 hrs of simulated blood draw
[7] = tested on: E. coli strain Mu14S; experiment: as above; details: Mu14S treated at each resistant breakpoint (tetracycline 16 μg/mL)
Protocol: as §1
(§3) To simulate a blood specimen from a patient with bacteremia, the isolates were grown, diluted to the desired CFU/mL in blood (ZenBio, Research Triangle Park, NC) and saponin was added to achieve the final diluted sample. Initial bacterial cultures were prepared using Luria-Bertani (LB) broth for (E. coli) or cation-adjusted Mueller-Hinton broth (CAMHB). The fresh bacterial cultures started from ˜0.05 optical density (OD) by inoculating a 6-mL fresh growth medium with overnight culture were grown in an incubator shaker (MaxQ 4000, Thermal Fisher Scientific, Waltham, MA) at 37° C. and 225 rpm. After the culture reached mid-log phase, bacteria were collected and diluted into ˜10 CFU/mL through serial 10-fold dilutions. Bacterial densities were determined by plating onto LB plates. The final 10-fold dilution was performed by adding 500 μL of 100 CFU/mL into 4500 μL of 10% human blood in medium.
(§4) A 2.5% (w/v) of saponin solution was prepared, sonicated (Branson 2510, Emerson, St. Louis, MO) for 20 minutes and spun down with a clinical centrifuge (Centrific Model 228, Fisher Scientific, Waltham, MA) for 4 minutes. The supernatant cleared of particulates was collected. 500 μL of 2.5% saponin was then added to the 5 mL of 10% human blood sample with ˜10 CFU/mL, described above and the mixtures were shaken at 300 rpm for 15 minutes at 37° C. After the saponin treatment, the bacteria were pelleted and washed with 2 mL of phosphate buffered saline (PBS) (Life Technologies, Carlsbad, CA) using a clinical centrifuge for 2 minutes. Bacterial growth medium (2.5 mL) was then added to the tube and incubated for 2 hours at 37° C. and 225 rpm.
(§5) After the 2-hour incubation, 500-μL aliquots of the suspension were added to each of 4 wells in a 12-well microtiter plate that contained 500 μL of growth medium with or without antibiotic at 2-fold of specified concentrations. The plate was then incubated at 37° C. for 3 hours. Bacteria were collected by centrifugation (Centrifuge 5417R, Eppendorf) and resuspended in 200 μL of PBS for flow cytometry detection. To ensure each clinical isolate was tested at its MIC values of the tested antibiotics, the initial bacterial cultures at the 1000 CFU/mL dilution were also tested for each experiment (FIGS. 4A-4F, 5A-5F, 7A-7F, 8A-8F, and 9A-9F), confirming that the antibiotic concentrations indeed inhibited bacterial growth.
(§6) Cytometric data were collected by BD LSRFortessa flow cytometer (Becton Dickinson, Franklin Lake, NY) equipped with a 100 mW, 488 nm laser for the scatter signal. […]

[8] = tested on: E. coli strain Mu890; experiment: as above; details: Mu890 treated with 32 μg/mL (Enterobacteriaceae resistance breakpoint), vs no-antibiotic control
Protocol: as §1, §3, §4, §5, §6

[9] = tested on: 10% human blood samples without bacteria inoculation; experiment: Antibiotic-treated 10% human blood only control (no bacteria), flow cytometry; details: 10% human blood without bacteria, around the resistance breakpoints of Enterobacteriaceae
Protocol: FIGS. 6A-6D. Antibiotic-treated 10% human blood only results. Cytometric data with (FIG. 6A) Ampicillin (FIG. 6B) Tetracycline (FIG. 6C) Gentamicin. The greyscale plots are the no-antibiotic controls and the black contour plots are the antibiotic-treated data with the antibiotic concentration indicated at each plot. (FIG. 6D) PB-sQF results for FIGS. 6A-6C). […] For each antibiotic, the resistant breakpoints of Enterobacteriaceae are 16 μg/mL for tetracycline and gentamicin and 32 μg/mL for ampicillin.
This confirms that the gentamicin sensitivity of Mu14S observed after blood culture^(1) can also be observed on much shorter timescales with FAST. Overnight plating confirms that initial Mu14S counts were 3, 2, 5 and CFU/mL for tetracycline, gentamicin and ampicillin data after 10-fold dilution of the blood/bacteria mixture, corresponding to FAST being performed on whole blood samples containing ˜30, ˜20 and ˜50 CFU/mL. […] Thus, diluting bacterimic blood specimens 1:9 (v:v) directly into saponin-containing growth medium provides a path to ASTs within 8 hours from initial blood draw, with excellent results matching independent (36-44 hrs) MIC determinations from pure, overnight cultures (˜10^8 CFU/mL) that could only be initiated after (˜24 hr) positive blood culture.

[10] = tested on: E. coli strain ATCC 33456; experiment: Pre-blood culture AST with sheep blood, flow cytometry and PB-sQF
Protocol: (§7) To search for the condition to separate bacteria from the blood cells, sheep blood was used as a substitute for human blood. In order to remove the blood cells that have a concentration that is 10^6 to 10^7 times higher than the bacteria, 100 μL of 10% (w/v) saponin was added to 1 mL of sheep blood that was spiked with either 100 μL of LB or 10^4 CFU/mL E. coli strain ATCC 33456 (final concentration ˜10^3 CFU/mL) and incubated for 15 minutes at room temperature to lyse the blood cells. The same procedure was applied to 12 samples loaded in eppendorf tubes. These samples were then washed with PBS and resuspended in 500 μL L B broth. All 12 samples were added to the 12-well plate loaded with 480 μL of LB broth and/or penicillin g with 2× higher desired concentrations and 20 μL, 45 μM of MH-IR786. The plate was incubated for 5 hours. Each sample was then collected and analyzed by flow cytometry.

[11] = tested on: 100% sheep blood only; experiment: Pre-blood culture AST, 100% sheep blood only samples; details: no-antibiotic to 1×MIC
Protocol: as §7

[12] = tested on: Lab-strain E. coli (ATCC); experiment: FAST with low bacterial counts (500 counts by flow cytometry); details: each antibiotic at MIC, ¼ MIC and 1/16 MIC, bars beyond the 99% confidence line
Description: FIG. 14. Bactericidal Antibiotic-induced changes for low counts of E. coli. Lab-strain E. coli (ATCC) ASTs performed with 500 counts by flow cytometry with gentamicin (Gen), penicillin G (PenG), and tetracycline (Tet) each at MIC, ¼ MIC and 1/16 MIC. This strain is seen to be sensitive to all three antibiotics, as the bars extend beyond the 99% confidence line.
While both morphology and growth inhibition occur upon exposure to antibiotics near the minimum inhibitory concentration, standard ASTs are based on growth inhibition alone. The presence of bacteria is clearly indicated by the presence of a particular scattering peak in the multidimensional histogram. This is much more sensitive and less affected by background than is shifts in a peak resulting from morphological changes upon antibiotic exposure. […] For even a few hundred counts, the presence of a bacterial population can be readily assessed with flow cytometry, but error bars and statistical distances must be properly determined relative to no-antibiotic controls. When too few counts for triplicate runs exist, control and each antibiotic exposure histograms are treated as probability distributions that are representative of the true mother distribution for each condition. Each histogram is binned (either adaptively with probability binning or using regular bins) and the distribution of data within each bin is determined. […]

[13] = tested on: E. coli strain ATCC 33456; experiment: MIC of lab strain E. coli
[14] = Acinetobacter nosocomialis, read-out: MIC
[15] = Escherichia coli, read-out: MIC
[16] = Klebsiella pneumoniae, read-out: MIC
[17] = Escherichia coli, MU890, E. coli Mu890, read-out: MIC

| SMILES | MIC [1, 14] [µg/mL] | MIC (S/I/R) [1] | MIC [1] [µg/mL] | MIC [2, 15] [µg/mL] | MIC (S/I/R) [2] | MIC [2] [µg/mL] | MIC [3, 16] [µg/mL] | MIC (S/I/R) [3] | MIC [3] [µg/mL] | MIC (S/I/R) ([4]; E. coli Mu890) | MIC [4, 17] [µg/mL] | MIC [5, 16] [µg/mL] | MIC (S/I/R) [5] | further results |
| --- | --- | --- | --- | --- | --- | --- | --- | --- | --- | --- | --- | --- | --- | --- |
| CC1(C)S[C@@H]2[C@H](NC(=O)[C@H](N)c3ccccc3)C(=O)N2[C@H]1C(=O)O [Ampicillin] | > 1020 | (R) | > 1024 | > 1020 | (R) | > 1024 | > 1020 | (R) | > 1024 | (R) | > 1020 | > 1020 | (R) | MIC [5]: > 1024 µg/mL; PB-sQF FAST susceptibility [6]: resistant; FAST antibiotic-induced scatter signal change [7]: remained statistically unchanged; FAST antibiotic-induced scatter signal change [8]: indistinguishable from those of the no-antibiotic control; scattered light histograms change [9]: do not significantly change |
| CN(C)[C@@H]1C(O)=C(C(N)=O)C(=O)[C@@]2(O)C(O)=C3C(=O)c4c(O)cccc4[C@@](C)(O)[C@H]3C[C@@H]12 [Tetracycline] | 1 (≈ 2.25 µM) | (S) | 1 (≈ 2.25 µM) | > 64 | (R) | >64 | > 64 | (R) | >64 | (S) | 1 (≈ 2.25 µM) | 2 (≈ 4.5 µM) | (S) | MIC ([4]; E. coli Mu890): 1 µg/mL (≈ 2.25 µM); MIC ([4]; E. coli Mu890, listed as tetracycline): 2 µg/mL (≈ 4.5 µM) |
| CC1(C)S[C@@H]2[C@H](NC(=O)Cc3ccccc3)C(=O)N2[C@H]1C(=O)O [penicillin g] | – | – | – | – | – | – | – | – | – | – | – | – | – | cytometric data, growth inhibition ([10]; 1000 CFU/mL E. coli spiked sheep blood, 1×MIC, 5 hours): clear growth inhibition; PB-sQF distance ([10]; 1000 CFU/mL and 10^5 CFU/mL spiked sheep blood, from 1/16×MIC to 1×MIC): clear increment of distance increases; cytometric data of blood-only samples [11]: remained very similar to each other; PB-sQF AST susceptibility at low counts [12]: sensitive; 1×MIC [13]: 32 µg/mL |

Reference: patent US12061143B2, “Methods for rapid determinations of antibiotic susceptibility phenotypes” (priority 2018, dated 2024)
